Data on one compound can be found in patent publication US10363239B2, “Method for inhibiting growth of cancer cells” (Pain Therapeutics, Inc., priority 2013, dated 2019).

The target of one assay is T1, FLNA from HPECs (Homo sapiens, UniProt P21333).
T1 construct: FLNA was purified separately from MiaPaCa2 cells and from HPECs; endogenous in cells; host or cells: primary human pancreatic epithelial cells (HPEC)
In words: Isoelectric focusing of purified FLNA (FLNA conformation). The class given is cell-based. The note with it: 1 nM; 4 days. On the procedure: (§1) FIGS. 33A and 33B show isoelectric focusing result data (FIG. 33A) for FLNA separately isolated from HPEC and MiaPaCa2 cells after four days of incubation (contact) of those cells with medium alone or medium plus 1 nM Compound C0105. […] N=4, *p<0.01.
(§2) To determine whether the conformation of FLNA is different in cancer and primary normal cells and whether Compound C0105 affects FLNA conformation, FLNA was purified from cancer and primary cells after incubation with vehicle or 1 nM Compound C0105 for 4 days. Cells were washed with PBS, scraped, sonicated for 10 seconds and solubilized using 0.5% digitonin/0.2% sodium cholate/0.5% NP-40 at 4° C. with end-over-end rotation for 1 hour. Following centrifugation to remove insoluble debris, the obtained lysate was treated with 1% SDS for 1 minute to dissociate the […] proteins, diluted 10-fold with immunoprecipitation buffer, and immunopurified with immobilized anti-FLNA. The resultant FLNA was eluted using 200 μl antigen-elution buffer (Thermo), neutralized immediately with 100 mM Tris HCl (pH9.0), diluted to 500 μl with 50 mM Tris HCl, pH7.5, and passed through a 100 kD cut-off filter.
(§3) The purified FLNA was suspended in the 100 μl isoelectric focusing sample buffer. […]

The target in a further assay is T2, FLNA from MiaPaCa2 cells (Homo sapiens, UniProt P21333).
T2 construct: FLNA was purified separately from MiaPaCa2 cells and from HPECs; endogenous in cells; host or cells: MiaPaCa2 (MIA PaCa-2, ATCC CRL-1420)
T2 sequence (P21333 whole entry): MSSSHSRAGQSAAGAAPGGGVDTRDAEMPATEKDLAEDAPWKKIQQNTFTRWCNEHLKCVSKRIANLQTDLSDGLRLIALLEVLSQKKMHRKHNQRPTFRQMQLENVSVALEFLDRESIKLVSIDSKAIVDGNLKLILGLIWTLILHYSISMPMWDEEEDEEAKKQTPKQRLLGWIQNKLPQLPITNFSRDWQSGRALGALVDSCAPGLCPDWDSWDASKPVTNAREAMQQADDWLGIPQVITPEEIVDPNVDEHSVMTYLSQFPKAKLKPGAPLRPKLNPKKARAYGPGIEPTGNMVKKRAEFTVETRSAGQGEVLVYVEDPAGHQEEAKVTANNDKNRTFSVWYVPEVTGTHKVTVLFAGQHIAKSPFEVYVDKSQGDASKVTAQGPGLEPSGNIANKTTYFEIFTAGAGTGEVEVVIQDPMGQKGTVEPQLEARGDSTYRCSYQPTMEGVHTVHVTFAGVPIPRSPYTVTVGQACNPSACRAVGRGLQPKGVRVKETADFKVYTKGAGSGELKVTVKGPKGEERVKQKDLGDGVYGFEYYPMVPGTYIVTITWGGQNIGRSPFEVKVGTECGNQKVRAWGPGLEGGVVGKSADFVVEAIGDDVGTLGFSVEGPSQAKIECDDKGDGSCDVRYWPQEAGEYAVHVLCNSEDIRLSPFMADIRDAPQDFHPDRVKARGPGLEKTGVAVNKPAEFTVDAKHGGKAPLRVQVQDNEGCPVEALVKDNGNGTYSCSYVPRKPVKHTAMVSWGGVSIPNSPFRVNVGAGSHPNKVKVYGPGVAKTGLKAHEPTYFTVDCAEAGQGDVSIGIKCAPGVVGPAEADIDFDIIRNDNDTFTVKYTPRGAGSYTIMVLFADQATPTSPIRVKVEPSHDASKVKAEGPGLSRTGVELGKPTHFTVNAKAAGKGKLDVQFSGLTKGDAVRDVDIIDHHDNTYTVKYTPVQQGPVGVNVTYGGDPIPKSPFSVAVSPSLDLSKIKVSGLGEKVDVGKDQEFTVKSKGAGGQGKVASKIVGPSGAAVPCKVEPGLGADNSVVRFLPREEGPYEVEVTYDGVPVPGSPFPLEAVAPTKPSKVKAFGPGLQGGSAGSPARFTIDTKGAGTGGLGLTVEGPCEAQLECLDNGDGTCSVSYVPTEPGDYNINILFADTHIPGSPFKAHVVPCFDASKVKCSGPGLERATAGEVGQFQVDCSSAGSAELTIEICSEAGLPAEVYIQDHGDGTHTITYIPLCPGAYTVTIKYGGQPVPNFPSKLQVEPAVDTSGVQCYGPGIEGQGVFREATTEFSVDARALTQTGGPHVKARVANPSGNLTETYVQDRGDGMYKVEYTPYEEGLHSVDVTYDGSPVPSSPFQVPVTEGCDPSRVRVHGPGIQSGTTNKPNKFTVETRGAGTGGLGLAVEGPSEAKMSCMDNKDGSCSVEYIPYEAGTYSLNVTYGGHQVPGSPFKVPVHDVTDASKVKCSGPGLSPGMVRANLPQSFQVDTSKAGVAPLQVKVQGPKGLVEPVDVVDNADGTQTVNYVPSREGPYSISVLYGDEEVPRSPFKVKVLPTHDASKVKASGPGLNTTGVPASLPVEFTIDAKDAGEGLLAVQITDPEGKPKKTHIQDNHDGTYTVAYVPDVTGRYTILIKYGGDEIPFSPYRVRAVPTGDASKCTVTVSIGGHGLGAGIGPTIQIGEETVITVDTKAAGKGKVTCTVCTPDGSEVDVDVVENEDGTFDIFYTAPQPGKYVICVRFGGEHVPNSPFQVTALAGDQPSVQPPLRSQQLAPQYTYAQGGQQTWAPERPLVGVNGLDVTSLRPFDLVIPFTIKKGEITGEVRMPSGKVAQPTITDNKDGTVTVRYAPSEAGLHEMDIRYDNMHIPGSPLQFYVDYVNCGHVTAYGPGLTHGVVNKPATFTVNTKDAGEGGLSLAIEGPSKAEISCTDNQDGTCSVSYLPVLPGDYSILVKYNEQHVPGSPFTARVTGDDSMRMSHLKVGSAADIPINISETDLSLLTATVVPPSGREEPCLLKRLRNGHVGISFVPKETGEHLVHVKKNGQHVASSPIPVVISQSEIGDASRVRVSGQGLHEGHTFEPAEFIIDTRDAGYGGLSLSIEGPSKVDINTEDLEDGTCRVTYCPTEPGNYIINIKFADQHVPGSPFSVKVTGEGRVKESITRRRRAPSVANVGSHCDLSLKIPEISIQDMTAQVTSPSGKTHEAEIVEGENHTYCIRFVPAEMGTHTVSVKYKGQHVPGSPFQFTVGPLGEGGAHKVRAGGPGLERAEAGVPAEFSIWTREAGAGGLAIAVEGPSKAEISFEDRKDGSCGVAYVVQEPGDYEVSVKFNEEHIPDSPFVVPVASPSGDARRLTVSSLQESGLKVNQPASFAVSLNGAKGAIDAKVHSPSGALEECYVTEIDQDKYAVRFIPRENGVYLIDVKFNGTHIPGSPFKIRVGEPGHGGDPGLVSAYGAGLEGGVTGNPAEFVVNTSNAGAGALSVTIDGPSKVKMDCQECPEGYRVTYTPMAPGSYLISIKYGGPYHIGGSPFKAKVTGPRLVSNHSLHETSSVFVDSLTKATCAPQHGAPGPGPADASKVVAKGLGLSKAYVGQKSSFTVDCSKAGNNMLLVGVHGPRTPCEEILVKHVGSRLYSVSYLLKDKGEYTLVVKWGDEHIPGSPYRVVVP
The assay is described as above. The note with it: 1 nM; 4 days. The class given is cell-based. On the procedure:
as §1, §2, §3

Assay [1] deals with FLNA-bound K-ras and ras-GAP in glioblastoma cell line (U87). As to the kind of experiment: FLNA-bound K-ras and ras-GAP (immunoprecipitation, Western blotting). It is filed as cell-based, human. The note with it: 0.1, 0.5, 1 and 5 nM. On the procedure: Thus, melanoma, two different pancreatic cancerous cell lines (MiaPaCa2 and BxPc3) and a glioblastoma cell line (U87) were treated with zero (vehicle), 0.1, 0.5, 1 and 5 nM Compound C0105 as previously discussed, and FLNA-bound K-ras and ras-GAP were immunoprecipitated, separated by Western blotting and the blot densities determined as discussed previously.
To study the effect of Compound C0105 on pS^2152FLNA levels, FLNA linkages to key regulators including protein phosphatases as well as activated Akt (pS^473-, pT^308-Akt), mTOR ([…]) and ERK (pY/pT-ERK) levels, the cancer and normal cells were cultured to approximately 90% confluency and treated with vehicle or varying concentrations of Compound C0105. The cells were washed with warm phosphate-buffered saline (PBS), pH 7.2, dissociated, homogenized by sonication and solubilized using 0.5% NP-40 (nonoxynol 40), 0.2% sodium cholate and 0.5% digitonin for 1 hour at 4° C.
The cell lysates were diluted 5-fold with immunoprecipitation buffer and immunoprecipitated with anti-FLNA, -Akt, -mTOR and -ERK2 as described previously [Talbot et al., J Clin Inv 122(4):1-23 (2012); Wang et al., J Neurosci 32(29):9773-9784 (2012)]. The levels of FLNA linkages, activated phosphorylated Akt (pS^473 and pT^308), phosphorylated mTOR (pS^2448) and phosphorylated ERK2 (pY/pT) were determined in anti-FLNA, -Akt, -mTOR and -ERK2 immunoprecipitates by Western blotting with appropriate antibodies directed against PTEN, PP2A, K-RAS, ras-GAP (FLNA linkages), pS^473Akt, pT^308Akt, pS^2448mTOR and pY/pT ERK2 (activation of Akt, mTOR and ERK2).

The subject of the next assay is glioblastoma cells. As to the kind of experiment: Glucose deprivation-induced apoptosis markers (cleaved PARP-1, caspase-3) by Western blotting. The note with it: 1 nM; Day 3 and 4. It is filed as cell-based, human. On the procedure: . The resultant cell lysates were size-fractionated on SDS-PAGE and Western blotting with antibodies specific for Cleaved […] (Asp214) and caspase-3 (Asp175). The protein bands were quantified by densitometric scanning. […] . Data are mean±S.E.M. of ratios (FIG. 3B) and % inhibition (FIG. 3C). […] N=5. *p<0.01 compared to Day 0. #p<0.01 compared to vehicle (open bars).
. The cells were washed with PBS, incubated in 0.1% fetal bovine serum (FBS) for 16 hours and incubated in glucose-free 0.1% FBS-containing medium for up to 4 days in the presence of vehicle or 1 nM Compound C0105. The cells in the entire well were collected by centrifugation. […] The protein concentrations were measured by the Bradford method.
The cells were homogenized and the obtained homogenates were centrifuged to remove nucleus and mitochondria. […] The level of apoptotic cell death was determined using Western blotting in 50 μg solubilized cell lysates with antibodies against cleaved PARP-1 (Asp^214) and caspase-3 (Asp^175), both at 1:1000 dilution. […] Bands at the relevant molecular masses of Ki67 and PCNA were quantified by densitometric scan. Membranes were stripped, washed 5× in 0.1% PBST (2 minutes each wash) and the actin content analyzed by immunoblotting using monoclonal anti-actin to illustrate even loading.
For orientation: Immunoblotting shows a protein as a band on a membrane.

For the next assay, the system named is MiaPaCa2 cell implants. In words: Xenograft survival study. It is filed as in vivo, Nu/Nu mice. The note with it: 100 mg/kg. How it is done: FIGS. 34A and 34B illustrate Kaplan-Meier survival curves (FIG. 34A) and averaged tumor volumes (FIG. 34B) in a xenograft study in which MiaPaCa2 cells were implanted in Nu/Nu mice. […] FIG. 34B illustrates average tumor volumes (mm3) in mice treated with vehicle alone (black diamonds), gemcitabine (open squares), Compound C0105 at 10 mg/kg (black triangles) and Compound C0105 at 100 mg/kg (open diamonds).
Mice were monitored individually and the treatment effect was compared to each mouse's own original tumor on the treatment day 0. The endpoint of the study was a tumor volume of 1500 mm^3 or 45 days, whichever comes first. The animals were euthanized when the endpoint was reached. Responders were followed longer (survival study). The Table below illustrates the drug treatment administered to the mice.
A third xenograft study was designed to measure survival rather than tumor volume at a designated time point.

T1 sequence (P21333 whole entry): as above

Take `CN1CCC2(CC1)NCC(=O)N2Cc1ccccc1` [Compound C0105]: the “pI of FLNA” value on FLNA from HPECs was “no effect on the pI”. Also, the “Fraction of FLNA restored to the conformation (pI) present in HPECs” value on FLNA from MiaPaCa2 cells is recorded as “about 75%”. Further, in assay [1], the “FLNA-bound K-ras” value was “reduces K-ras” and the “FLNA-bound Ras-GAP” value is reported as “increases Ras-GAP”. Further, the “Glucose deprivation-induced cell death by cleaved PARP-1 and caspase-3” value in the assay on glioblastoma cells was “attenuates glucose deprivation-induced cell death”. Also, in the assay with MiaPaCa2 cell implants, the “Tumors shrunk to undetectable” value was “completely shrunk tumors to being undetectable in three high-dose (100 mg/kg) mice”. Besides, in the assay with MiaPaCa2 cell implants (mouse found dead at 30 days), the “Tumor shrinkage compared to mice receiving vehicle” value is “more than 90%”.
